# Read-outs that look alike come from different tables or passages of the source.
# Legend:
# L. major promastigotes [1] = assay: In vitro growth of L. major promastigotes, 3H-thymidine uptake (Example 4); type: cell-based, Leishmania major; settings: Leishmania major; for IC50: read-out: concentration for 50% inhibition; for inhibition at 1 µg/mL: 1 μg/ml; for inhibition at 2 µg/mL: 2 μg/ml; for inhibition at 5 µg/mL: 5 μg/ml; for inhibition at 10 µg/mL: 10 μg/ml; for inhibition at 20 µg/mL: 20 μg/ml
# L. major amastigotes = L. major amastigotes in human macrophages, Giemsa counting (Example 6); type: cell-based, Leishmania major
# Method: Macrophage culture. The method used in this study was a modification of the one described by Berman et al. (1979). Human peripheral blood monocytes were obtained by Ficoll-Hypaque fractionation of blood from the Blood Bank, Rigshospitalet, Copenhagen, Denmark. Washed cells were suspended in medium RPMI-199 containing penicillin (50 U/ml), and streptomycin (50 μg/ml), 25 mM Hepes, 4 mM L-glutamine, and 10% heat inactivated fetal calf serum (56° C., 30 min). One milliliter of suspension containing 1×10^6 mononuclear cells was added to each well (16 mm in diameter, with one piece of cover glass in 12 mm diameter) of 24 wells of plastic culture trays (Nunc, Denmark). After 4 h and again after 3 days of incubation at 37° C. in 5% CO2-95% air, old medium was removed and washed with warm fresh medium three times, and then replaced with warm fresh medium.
# Infection of macrophages with L. major promastigotes. After 6 days incubation the old medium was removed, and one milliliter of 1×10^7 4 days culture of L. major promastigotes (same promastigotes culture as in Example 4) was added to each well. After 24 h infection, macrophage cultures were washed three times with warm fresh medium and replenished with warm fresh medium with different concentrations of licochalcone A or medium alone. The medium was changed every 3 days. After infection, day 3 and day 6 a certain number of macrophage cultures were fixed with absolute methanol, stained with 5% Giemsa stain for 10 min, and examined by light microscopy (×1,000). The percentage of macrophages that contained amastigotes and the number of amastigotes present per infected macrophage were determined in replicate cultures by counting 200 cells per well.
# L. major = assay: In vivo growth of L. major in BALB/c mice (Example 8); parameters: key to amastigotes findings on the impression smear, Spleen / amastigotes findings on the impression smear, Liver: −: no parasite amastigotes detected in 5 fields of microscopical vision; +: parasite amastigotes from 5 fields of microscopical vision < 100; ++: parasite amastigotes from 5 fields of microscopical vision = 100-500; +++: parasite amastigotes from 5 fields of microscopical vision = 500-1000; settings: for parasitic load of the footpad, 3H-thymidine uptake (mean) / parasitic load of the liver, 3H-thymidine uptake (mean): 42 days
# Method: Mice. BALB/c female mice aged eight weeks old were used throughout. Parasite. The maintenance, cultivation, and isolation of the promastigote-stage of the parasite L. major (WHO reference vaccine strain) have been described in detail in Example 4. […] The lesions that developed in the footpad were measured with a dial-calliper and expressed as footpad thickness increase (in mm). The footpad thickness of mice was measured before infection and every 3 days after 7 days of infection. From 7 days of infection, mice received licochalcone A injections i.p. or intralesionally once a day. After 42 days of licochalcone A injection, some of the mice were killed and the footpads, spleens and livers removed. The parasite loads in the footpads and livers were estimated by a modification of the method described by Liew et al. 1990. […] Incubation was carried out at 28° C. for 3 days and then pulsed with 1 μCi of ^3H-thymidine. Cultures were harvested 18 h later on filter paper by a cell harvester (Skatron, Lierbyen, Norway), extensively washed with distilled water and counted in a scintillation counter (Minaxi Ti-Carb 4000, United Technologies, Packard, USA). The results were expressed as cpm. The footpads, spleens and livers impression was also estimated. Drugs. One mg of licochalcone A was dissolved in 20 μl of 99% (v/v) ethanol, and then 980 μl of medium 199 was added an the resulting mixture was stored at −20° C. before use.
# L. major promastigotes [2] = assay: Electron microscopy of L. major promastigotes (Example 11); type: cell-based, Leishmania major; settings: for diameter of mitochondria, Maximum (mean) / diameter of mitochondria, Minimum (mean): 24 hours
# [3] = test system: chloroquine-sensitive P. falciparum 3D7A strain; assay: In vitro growth of P. falciparum 3D7A, 3H-hypoxanthine uptake (Example 15); type: cell-based, Plasmodium falciparum; settings: for Percentage inhibition of 3H-hypoxanthine uptake (mean ± SEM): title: percentage inhibition of 3H-hypoxanthine uptake
# L. micdadei = assay: microbe, parasite or virus in culture; type: cell-based, Legionella micdadei
# [4] = test system: L. major WHO pentostam resistant strain promastigotes; assay: Pentostam resistant L. major promastigotes, 3H-thymidine uptake (Example 10); settings: 5 μg/ml
# [5] = read-out: percentage inhibition of 3H-thymidine uptake (mean ± SEM), 3-day culture
# [6] = read-out: percentage inhibition of 3H-thymidine uptake (mean ± SEM), 6-day culture
structure (smiles),measurement,setting,value
"C=CC(C)(C)c1cc(/C=C/C(=O)c2ccc(O)cc2)c(OC)cc1O [Licochalcone A, licochalcone A]",IC50,L. major promastigotes [1]; log phase promastigotes,2 to 5 mg/L
same,inhibition at 1 µg/mL,L. major promastigotes [1]; [5],3.6 ± 11.5%
same,inhibition at 2 µg/mL,L. major promastigotes [1]; [5],14.8 ± 21.5%
same,inhibition at 5 µg/mL,L. major promastigotes [1]; [5],63.9 ± 13%
same,inhibition at 10 µg/mL,L. major promastigotes [1]; [5],91.9 ± 8.4%
same,inhibition at 20 µg/mL,L. major promastigotes [1]; [5],96 ± 7.5%
same,inhibition at 1 µg/mL,L. major promastigotes [1]; [6],15.8 ± 16.5%
same,inhibition at 2 µg/mL,L. major promastigotes [1]; [6],42.6 ± 19.7%
same,inhibition at 5 µg/mL,L. major promastigotes [1]; [6],80.7 ± 6.4%
same,inhibition at 10 µg/mL,L. major promastigotes [1]; [6],96.4 ± 1.2%
same,inhibition at 20 µg/mL,L. major promastigotes [1]; [6],99.4 ± 1.1%
same,IC50,L. major promastigotes [1]; stationary phase promastigotes,~2 mg/L
same,number of amastigotes/100 macrophages,"L. major amastigotes; 1 μg/ml, 3-day",54
same,number of infected macrophages/100 macrophages,"L. major amastigotes; 1 μg/ml, 3-day",43
same,number of amastigotes/100 macrophages,"L. major amastigotes; 1 μg/ml, 6-day",45/45/100
same,number of infected macrophages/100 macrophages,"L. major amastigotes; 1 μg/ml, 6-day",45/45/100
same,number of amastigotes/100 macrophages,"L. major amastigotes; 5 μg/ml, 3-day",18
same,number of infected macrophages/100 macrophages,"L. major amastigotes; 5 μg/ml, 3-day",7
same,number of amastigotes/100 macrophages,"L. major amastigotes; 5 μg/ml, 6-day",11
same,number of infected macrophages/100 macrophages,"L. major amastigotes; 5 μg/ml, 6-day",5
same,number of amastigotes/100 macrophages,"L. major amastigotes; 10 μg/ml, 3-day",10
same,number of infected macrophages/100 macrophages,"L. major amastigotes; 10 μg/ml, 3-day",5
same,number of amastigotes/100 macrophages,"L. major amastigotes; 10 μg/ml, 6-day",6
same,number of infected macrophages/100 macrophages,"L. major amastigotes; 10 μg/ml, 6-day",4
same,"amastigotes findings on the impression smear, Footpad",L. major; 20 μg intralesional,+ (parasite amastigotes from 5 fields of microscopical vision < 100)
same,"amastigotes findings on the impression smear, Liver",L. major; 20 μg intralesional,+ (parasite amastigotes from 5 fields of microscopical vision < 100)
same,"amastigotes findings on the impression smear, Spleen",L. major; 20 μg intralesional,+ (parasite amastigotes from 5 fields of microscopical vision < 100)
same,"parasitic load of the footpad, 3H-thymidine uptake (mean)",L. major; 20 μg intralesional once a day,243.5 ×10^3 cpm
same,"parasitic load of the liver, 3H-thymidine uptake (mean)",L. major; 20 μg intralesional once a day,10.8 ×10^3 cpm
same,"amastigotes findings on the impression smear, Footpad",L. major; 50 μg i.p.,+ (parasite amastigotes from 5 fields of microscopical vision < 100)
same,"amastigotes findings on the impression smear, Liver",L. major; 50 μg i.p.,−
same,"amastigotes findings on the impression smear, Spleen",L. major; 50 μg i.p.,−
same,"parasitic load of the footpad, 3H-thymidine uptake (mean)",L. major; 50 μg i.p. once a day,58.0 ×10^3 cpm
same,"parasitic load of the liver, 3H-thymidine uptake (mean)",L. major; 50 μg i.p. once a day,11.7 ×10^3 cpm
same,"amastigotes findings on the impression smear, Footpad",L. major; 50 μg intralesional,+ (parasite amastigotes from 5 fields of microscopical vision < 100)
same,"amastigotes findings on the impression smear, Liver",L. major; 50 μg intralesional,+ (parasite amastigotes from 5 fields of microscopical vision < 100)
same,"amastigotes findings on the impression smear, Spleen",L. major; 50 μg intralesional,+ (parasite amastigotes from 5 fields of microscopical vision < 100)
same,"parasitic load of the footpad, 3H-thymidine uptake (mean)",L. major; 50 μg intralesional once a day,282.6 ×10^3 cpm
same,"parasitic load of the liver, 3H-thymidine uptake (mean)",L. major; 50 μg intralesional once a day,20.8 ×10^3 cpm
same,"amastigotes findings on the impression smear, Footpad",L. major; 100 μg i.p.,+ (parasite amastigotes from 5 fields of microscopical vision < 100)
same,"amastigotes findings on the impression smear, Liver",L. major; 100 μg i.p.,−
same,"amastigotes findings on the impression smear, Spleen",L. major; 100 μg i.p.,−
same,"parasitic load of the footpad, 3H-thymidine uptake (mean)",L. major; 100 μg i.p. once a day,89.0 ×10^3 cpm
same,"parasitic load of the liver, 3H-thymidine uptake (mean)",L. major; 100 μg i.p. once a day,12.8 ×10^3 cpm
same,morphological changes of promastigotes,L. major promastigotes [2]; 1 μg/ml,no morphological changes
same,"diameter of mitochondria, Maximum (mean)",L. major promastigotes [2]; 1 μg/ml,203 nm
same,"diameter of mitochondria, Minimum (mean)",L. major promastigotes [2]; 1 μg/ml,104 nm
same,"diameter of mitochondria, Maximum (mean)",L. major promastigotes [2]; 5 μg/ml,548 nm
same,"diameter of mitochondria, Minimum (mean)",L. major promastigotes [2]; 5 μg/ml,165 nm
same,percentage of L. major showing cytoplasmic granules,"L. major promastigotes [2]; 5 μg/ml, control 50%",70%
same,"diameter of mitochondria, Maximum (mean)",L. major promastigotes [2]; 10 μg/ml,1043 nm
same,"diameter of mitochondria, Minimum (mean)",L. major promastigotes [2]; 10 μg/ml,294 nm
same,IC50,"[3]; Plasmodium falciparum, read-out: concentration in which growth was retarded by 50%",0.5 to 1 mg/L
same,Percentage inhibition of 3H-hypoxanthine uptake (mean ± SEM),[3]; 0.1 μg/ml,15.0 ± 3.0%
same,Percentage inhibition of 3H-hypoxanthine uptake (mean ± SEM),[3]; 0.5 μg/ml,39.0 ± 6.0%
same,Percentage inhibition of 3H-hypoxanthine uptake (mean ± SEM),[3]; 1 μg/ml,69.0 ± 4.0%
same,Percentage inhibition of 3H-hypoxanthine uptake (mean ± SEM),[3]; 5 μg/ml,98.0 ± 0.001%
same,Percentage inhibition of 3H-hypoxanthine uptake (mean ± SEM),[3]; 10 μg/ml,98.0 ± 0.0001%
same,MIC,"L. micdadei; Fluoribacter gormanii, read-out: MIC-values, Legionella gormanii and the 4 L. micdadei isolates",15 to 500 mg/L
same,MIC,"L. micdadei; Legionella micdadei, L. micdadei (Bari)",60 mg/L
same,MIC,"L. micdadei; Legionella micdadei, L. micdadei (Detroit)",15 mg/L
same,MIC,"L. micdadei; Legionella micdadei, L. micdadei (F 1433)",60 mg/L
same,MIC,"L. micdadei; Legionella micdadei, L. micdadei, 1 strain",500 mg/L
same,growth of pentostam resistant parasites,[4],completely inhibited the growth
